Patent publication US4263427A, “Monensin urethane derivatives” (priority 1979, dated 1981)
In brackets after ≈: the same amount, converted by molar mass.

What was measured:
Bacillus megaterium 8CU = assay: Minimum Inhibitory Concentration, agarwell diffusion assay (Table 6); type: cell-based; conditions: Priestia megaterium, 8CU, read-out: Minimum Inhibitory Concentration, Bacillus megaterium 8CU
Description: (§1) (a) Lowest twofold dilution giving zone of inhibition in the agarwell
(§2) (b) NRRL collection number, all the rest ate ATCC numbers.

Bacillus sp. E 27859 = assay: as above; type: cell-based; conditions: Bacillus, SP.E27859, Bacillus sp. E 27859, read-out: Minimum Inhibitory Concentration
Description: as §1, §2

Bacillus sp. TA 27860 = assay: as above; type: cell-based; conditions: Bacillus, SP.TA27860, Bacillus sp. TA 27860, read-out: Minimum Inhibitory Concentration
Description: as §1, §2

Bacillus subtilis 583 = assay: as above; type: cell-based; conditions: Bacillus subtilis, 583, Bacillus subtilis 583 (NRRL), read-out: Minimum Inhibitory Concentration
Description: as §1, §2

MycoBacterium phiel 355 = assay: as above; type: cell-based; conditions: Mycobacterium, 355, read-out: Minimum Inhibitory Concentration, MycoBacterium phiel 355
Description: as §1, §2

[1] = tested on: Paceilomyces variotl 25820; assay: as above; type: cell-based; conditions: read-out: Minimum Inhibitory Concentration, Paceilomyces variotl 25820
Description: as §1, §2

Sarcina lutca 9341 = assay: as above; type: cell-based; conditions: Sarcina, 9341, read-out: Minimum Inhibitory Concentration, Sarcina lutca 9341
Description: as §1, §2

Staph. aureus 6538 = assay: as above; type: cell-based; conditions: Staphylococcus aureus, 6538, read-out: Minimum Inhibitory Concentration, Staph. aureus 6538
Description: as §1, §2

[2] = tested on: Streptococcus cellulosac 3313; assay: as above; type: cell-based; conditions: Streptococcus, 3313, read-out: Minimum Inhibitory Concentration, Streptococcus cellulosac 3313
Description: as §1, §2

[3] = tested on: Streptococcus faecium 8043; assay: as above; type: cell-based; conditions: Enterococcus faecium, 8043, Streptococcus faecium 8043, read-out: Minimum Inhibitory Concentration
Description: as §1, §2

[4] = Oral antihypertensive activity: blood pressure and heart rate (Table 9); type: in vivo; conditions: oral dose 10 mg/kg
Description: Compounds of formula I, and their pharmaceutically acceptable salts are orally active as antihypertensive agents.

rumen fluid = conditions: 50 ppm; control 100
Eimeria tenella = assay: Anti-coccidial effect of monensin urethanes added to the feed of infected chickens (Table 7); type: in vivo; conditions: 125 ppm in feed; infected untreated control 3.0; less than 2.5 significant
Protocol: This test utilizes ten chickens per drug group. Ten chickens are employed as a weight control and ten chickens as an infected control. The drug is given 48 hours in advance of the infection. One gm. of the test drug is mixed in a mechanical mixer with a sufficient amount of chicken feed to result in the desired dosage. The infection consists of approximately 200,000 oocysts given orally by pipette. The tests lasts for eleven days and then the surviving birds are autopsied and examined for gross lesions in the ceca. The test birds are rated according to the number of survivors and the number of cecal lesions. The results are expressed as average degree of infection (A.D.I.). An average degree of infection of less than 2.5 is considered to be significant.

Treponema hyodysenteriae = assay: Activity against Treponema hyodysenteriae (MIC, blood agar plates); type: cell-based; conditions: 48 hours, 42° C., anaerobic
Description: Testing for activity against Treponema hyodysenteriae, a cause of swine dysentery consisted of inoculation of blood agar plates containing a series of two or fourfold dilutions of the monensin urethane derivatives with tenfold dilutions of the T. hyodysenteriae strain.

Compound	MIC (Bacillus megaterium 8CU)	MIC (Bacillus sp. E 27859)	MIC (Bacillus sp. TA 27860)	MIC (Bacillus subtilis 583)	MIC (MycoBacterium phiel 355)	MIC [1]	MIC (Sarcina lutca 9341)	MIC (Staph. aureus 6538)	MIC [2]	MIC [3]	Day of Maximum Change, Blood Pressure [4]	Day of Maximum Change, Heart Rate [4]	Maximum Change (%), Blood Pressure [4]	Maximum Change (%), Heart Rate [4]	Mean Blood Pressure at time of maximum effect ([4]; at time of maximum effect)	Mean Blood Pressure before treatment ([4]; before treatment)	Rate of Gas Production, Percent Production of Control Fermentations (rumen fluid)	Total VFA, Percent Production of Control Fermentations (rumen fluid)	Average Degree of Infected (A.D.I.) (Eimeria tenella)	MIC (Treponema hyodysenteriae)
CCC1(C2OC(C3OC(O)(COC(=O)NCCc4ccccc4)C(C)CC3C)CC2C)CCC(C2(C)CCC3(CC(O)C(C)C(C(C)C(OC)C(C)C(=O)O)O3)O2)O1 (centres unmarked) [Monensin A, 2-phenethylurethane]	0.8 µg/mL (≈ 0.978 µM)	0.8 µg/mL (≈ 0.978 µM)	1.6 µg/mL (≈ 1.96 µM)	1.6 µg/mL (≈ 1.96 µM)	6.3 µg/mL (≈ 7.7 µM)	12.5 µg/mL (≈ 15.3 µM)	1.6 µg/mL (≈ 1.96 µM)	6.3 µg/mL (≈ 7.7 µM)	12.5 µg/mL (≈ 15.3 µM)	0.4 µg/mL (≈ 0.489 µM)	5 days	2 days	15%	18%	189 mm Hg	223 mm Hg	101.7%	84.3%		
CCCCNC(=O)OCC1(O)OC(C2CC(C)C(C3(CC)CCC(C4(C)CCC5(CC(O)C(C)C(C(C)C(OC)C(C)C(=O)O)O5)O4)O3)O2)C(C)CC1C (centres unmarked) [Monensin A, N-butylurethane]	0.8 µg/mL (≈ 1.04 µM)	0.2 µg/mL (≈ 0.26 µM)	0.4 µg/mL (≈ 0.519 µM)	0.4 µg/mL (≈ 0.519 µM)	6.3 µg/mL (≈ 8.18 µM)	6.3 µg/mL (≈ 8.18 µM)	1.6 µg/mL (≈ 2.08 µM)	1.6 µg/mL (≈ 2.08 µM)	3.1 µg/mL (≈ 4.03 µM)	0.2 µg/mL (≈ 0.26 µM)										
CCC1(C2OC(C3OC(O)(COC(=O)Nc4ccc(I)cc4)C(C)CC3C)CC2C)CCC(C2(C)CCC3(CC(O)C(C)C(C(C)C(OC)C(C)C(=O)O)O3)O2)O1 (centres unmarked) [Monensin A, 4-iodophenylurethane]																			0.1	
CCC1(C2OC(C3OC(O)(COC(=O)Nc4ccc(C(C)=O)cc4)C(C)CC3C)CC2C)CCC(C2(C)CCC3(CC(O)C(C)C(C(C)C(OC)C(C)C(=O)O)O3)O2)O1 (centres unmarked) [Monensin A,4-(methylcarbonyl) phenylurethane]	1.6 µg/mL (≈ 1.92 µM)	0.2 µg/mL (≈ 0.24 µM)	0.8 µg/mL (≈ 0.961 µM)	1.6 µg/mL (≈ 1.92 µM)	6.3 µg/mL (≈ 7.57 µM)	6.3 µg/mL (≈ 7.57 µM)	1.6 µg/mL (≈ 1.92 µM)	1.6 µg/mL (≈ 1.92 µM)	3.1 µg/mL (≈ 3.73 µM)	0.8 µg/mL (≈ 0.961 µM)										
CCC1(C2OC(C3OC(O)(COC(=O)Nc4ccc(Oc5ccccc5)cc4)C(C)CC3C)CC2C)CCC(C2(C)CCC3(CC(O)C(C)C(C(C)C(OC)C(C)C(=O)O)O3)O2)O1 (centres unmarked) [Monensin A, 4-phenoxyphenylurethane]	0.4 µg/mL (≈ 0.453 µM)	0.4 µg/mL (≈ 0.453 µM)	0.2 µg/mL (≈ 0.227 µM)	0.4 µg/mL (≈ 0.453 µM)	1.6 µg/mL (≈ 1.81 µM)	0.8 µg/mL (≈ 0.907 µM)	0.4 µg/mL (≈ 0.453 µM)	0.4 µg/mL (≈ 0.453 µM)	0.8 µg/mL (≈ 0.907 µM)	0.1 µg/mL (≈ 0.113 µM)										
Monensin A, 2-phenylurethane																				0.4 meg/ml
